Measured values published in US11413296B2, “Viscous budesonide for the treatment of inflammatory diseases of the gastrointestinal tract” (The Regents of the University of California, priority 2005, dated 2022).
Where two headings read alike, the source gives them in different places.

Test system: children with EE
Format: in vivo, human
Text: Patient 1 was a person with a history of abdominal pain, failure to thrive, and vomiting since infancy, and developmental delay with isolated EE diagnosed in 2001. Their allergic history was significant for allergic rhinitis secondary to cat, dog, and dust mite exposure as well as positive Pharmacia CAP radioallergosorbent testing for fish and milk. […] They were referred to Children's Hospital Eosinophilic Gastrointestinal Disorders clinic for further management of EE recalcitrant to usual therapy. At the time of their referral, they continued to have vomiting and poor weight gain and their parent reported significant difficulty with the puff and swallow technique. They were placed on a regimen of twice daily oral budesonide suspension (Pulmicort®) 500 micrograms (4 ml) mixed with about 10 packets (1 gram each) sucralose (Splenda®), a non-absorbed sugar in order to increase fluid viscosity to be swallowed twice daily. The total volume of the preparation was about 7 to 8 ml. […] Eight am cortisol was 13.2 mcg/dL (normal range for age 3-15 mcg/dL) after four months of therapy.
Patient 2 was a child with a history of developmental delay, abdominal pain, and RAST positivity for milk, egg, and wheat. […] They were placed on a hydrolyzed formula containing milk protein (Peptamen Jr®), omeprazole 10 mg twice daily and oral cromolyn (Gastrocrom®) 100 mg four times daily. […] They were referred to the Children's Hospital Eosinophilic Gastrointestinal Disorders clinic for further management. […] After two months of elemental formula and oral cromolyn sodium, EGD was unchanged with a pale, furrowed esophagus and maximal eosinophil counts of 100, 90, and 70 per hpf in the distal, mid, and proximal esophagus with diffuse basal zone hyperplasia. Their developmental delay precluded the use of a fluticasone inhaler devise with puff and swallow technique. As an alternative, they received oral budesonide 500 micrograms (Pulmicort®) mixed with sucralose (Splenda®) twice daily as topical esophageal therapy.

[1] = Patient 2, elemental formula and oral cromolyn sodium, two months
[2] = Patient 2, hydrolyzed formula, omeprazole and oral cromolyn 100 mg four times daily, 12 months

## CCCC1O[C@@H]2C[C@H]3[C@@H]4CCC5=CC(=O)C=C[C@]5(C)[C@H]4[C@@H](O)C[C@]3(C)[C@]2(C(=O)CO)O1 (stereo partly drawn) [budesonide, 16,17-(butylidenebis(oxy))-11,21-dihydroxy-, (11-β,16-α)-pregna-1,4-diene-3,20-dione]
Patient 2 (70 before), oral budesonide 500 micrograms mixed with sucralose twice daily, 3 months
  maximum eosinophil count, proximal esophagus: 5 per hpf
Patient 2 (90 before), oral budesonide 500 micrograms mixed with sucralose twice daily, 3 months
  maximum eosinophil count, mid esophagus: 20 per hpf
Patient 2 (100 before), oral budesonide 500 micrograms (Pulmicort) mixed with sucralose twice daily, 3 months
  maximum eosinophil count, distal esophagus: 28 per hpf

## O=C(O)c1cc(=O)c2c(OCC(O)COc3cccc4oc(C(=O)O)cc(=O)c34)cccc2o1 [cromolyn]
Patient 2 (40 per hpf before), hydrolyzed formula (Peptamen Jr), omeprazole 10 mg twice daily and oral cromolyn 100 mg four times daily, 12 months
  maximum eosinophil count, distal esophagus: 94 per hpf
[1]
  maximal eosinophil count, distal esophagus: 100 per hpf
  maximal eosinophil count, mid esophagus: 90 per hpf
  maximal eosinophil count, proximal esophagus: 70 per hpf
[2]
  maximum eosinophil count, mid esophagus: 65 per hpf
  maximum eosinophil count, proximal esophagus: 90 per hpf

## CCC(=O)O[C@]1(C(=O)SCF)[C@H](C)C[C@H]2[C@@H]3C[C@H](F)C4=CC(=O)C=C[C@]4(C)[C@@]3(F)[C@@H](O)C[C@@]21C [fluticasone]
Patient 1, elemental formula and fluticasone, accompanied by basal zone hyperplasia
  maximal eosinophil count: 74 per hpf
Patient 1, omeprazole 10 mg twice daily and fluticasone 220 ug twice daily, after 6 months
  maximum eosinophil count: 50 per hpf

## C[C@]12C=CC(=O)C=C1CC[C@@H]1[C@@H]2C(=O)C[C@@]2(C)[C@H]1CC[C@]2(O)C(=O)CO [prednisone]
Patient 1 (EE, 60 per hpf at diagnosis), oral prednisone 0.5 mg per kg daily for one month
  maximum eosinophils per hpf on repeat EGD with biopsy: 2 per hpf
